Test results from patent EP1145714A1, “DRUGS” (Takeda Chemical Industries, Ltd., priority 1998, dated 2000).

Columns and labels:
[1] = system: acute and delayed vomiting induced by cisplatin in ferrets; assay: Acute and delayed vomiting induced by cisplatin in ferrets, oral dosing once or twice daily; format: in vivo; settings: cisplatin 5 mg/kg i.p.; for Duration (in hour; mean ± SD) / Latency (in hour; mean ± SD) / On day 0 (0-24 hours): frequency of retching and vomiting (mean ± SD) / On day 0 (0-24 hours): number of ferrets with vomiting/ number of tested ferrets / On days 1-2(24-48 hours): frequency of retching and vomiting (mean ± SD) / On days 1-2(24-48 hours): number of ferrets with vomiting/ number of tested ferrets / Total frequency of retching and vomiting (on days 0~2; 0-72 hours): twice daily, under fasting
Experimental: Male 4 to 6 ferrets (1.2 to 2.2 kg) per one group were used. Cisplatin was intraperitoneally given at 5 mg/5ml/kg. 30 minutes prior to cisplatin administration and 24 and 48 hours after cisplatin administration, predetermined doses of the compound No. 3 were orally given in case of dosing once daily. 30 minutes prior to cisplatin administration and 12, 24, 36, 48 and 60 hours after cisplatin administration, predetermined doses of the compound No. 3 were orally given in case of dosing twice daily. 30 minutes prior to the dosing of the compound No. 3, a small amount of a feed was given to the animals in any of the cases. Similarly, a predetermined volume of 0.5 % methyl cellulose solution was similarly given orally to a control animal group under no fasting. A predetermined dose of ondansetron was orally given to the animals under fasting. To a control animal group of ondansetron, a predetermined volume of physiological saline was orally given to the animals under fasting. The frequency of vomiting was counted in number, up to 72 hours after cisplatin administration.
The compound No. 3 was suspended in 0.5 % methyl cellulose solution, for oral dosing at predetermined doses at a ratio of 1 ml per 1 kg body weight. An injection of ondansetron at 0.2 w/v % concentration was orally given at a predetermined volume. Additionally, 0.5 % methyl cellulose solution was orally given at a ratio of 1 ml per 1 kg body weight, while physiological saline was orally given at a ratio of 0.5 to 1.5 ml per 1 kg body weight. The data relating to the frequency of vomiting, the time period (latency) until first vomiting and the time period from the occurrence of vomiting to the termination thereof were statistically analyzed by the Dunnett test, with reference to the difference from the control group.
The acute vomiting suppression ratio, delayed vomiting suppression ratio and total vomiting suppression ratio were calculated by the following formula. [Frequency of retching or vomiting in control] - [Frequency of retching or vomiting in animals dosed with compound No. 3] / [Frequency of retching or vomiting in control] x 100 (%) [formula]

[2] = system: methotrexate-induced delayed vomiting in dogs; assay: Methotrexate-induced delayed vomiting in dogs, oral dosing; format: in vivo, beagle dogs; settings: methotrexate 2.5 mg/kg i.v.
Experimental: 3 or 4 beagle dogs (8.3 to 12.6 kg), male or female per one group were used. Methotrexate was intravenously administered at 2.5 mg/ml/kg. 8, 24 and 48 hours after methotrexate dosing, predetermined doses of the compound No. 3, ondansetron and 0.5% methyl cellulose solution were orally given. The compound No. 3 and 0.5 % methyl cellulose solution were dosed 30 minutes after a small amount of a feed was given to the animals, while ondansetron was dosed to the animals under fasting. The frequency of vomiting was counted in number, up to 72 hours after methotrexate dosing. The compound No. 3 was suspended in 0.5 % methyl cellulose solution and was then orally dosed at a ratio of 0.25 to 1 ml per 1 kg body weight. A predetermined volume of an ondansetron injection at a concentration of 0.2 w/v % was orally dosed. Additionally, 0.5 % methyl cellulose solution was orally given at a ratio of 1 ml per 1 kg body weight. The data relating to the frequency of vomiting, the latency and the time period from the occurrence of vomiting to the termination thereof were statistically analyzed by the Dunnett test, with reference to the difference from the control group.
The delayed vomiting suppression ratio and the suppression ratio of the total frequency of vomiting were calculated by the following formula.

Cc1nccn1CC1CCc2c(c3ccccc3n2C)C1=O (stereo not shown) [Ondansetron, ondansetron, reference compound]
Acute vomiting suppression ratio (0 to 24 hours after cisplatin dosing) ([1]; 1 mg/kg p.o. twice daily): 0 % NS | Delayed vomiting suppression ratio (24 to 72 hours after cisplatin dosing) ([1]; 1 mg/kg p.o. twice daily): 0 % NS | Total vomiting suppression ratio (0 to 72 hours after cisplatin dosing) ([1]; 1 mg/kg p.o. twice daily): 0 % NS | Duration (in hour; mean ± SD) ([1]; 1 mg/kg × 2 p.o.): 56.5 ± 2.6 h | Latency (in hour; mean ± SD) ([1]; 1 mg/kg × 2 p.o.): 8.7 ± 0.9 h | On day 0 (0-24 hours): frequency of retching and vomiting (mean ± SD) ([1]; 1 mg/kg × 2 p.o.): 70.2 ± 25.2 | On day 0 (0-24 hours): number of ferrets with vomiting/ number of tested ferrets ([1]; 1 mg/kg × 2 p.o.): 5/5 | On days 1-2(24-48 hours): frequency of retching and vomiting (mean ± SD) ([1]; 1 mg/kg × 2 p.o.): 327.4 ± 88.8 | On days 1-2(24-48 hours): number of ferrets with vomiting/ number of tested ferrets ([1]; 1 mg/kg × 2 p.o.): 5/5 | Total frequency of retching and vomiting (on days 0~2; 0-72 hours) ([1]; 1 mg/kg × 2 p.o.): 397.6 ± 72.0 | Acute vomiting suppression ratio (0 to 24 hours after cisplatin dosing) ([1]; 3 mg/kg p.o. twice daily): 58 % NS | Delayed vomiting suppression ratio (24 to 72 hours after cisplatin dosing) ([1]; 3 mg/kg p.o. twice daily): 32 % NS | Total vomiting suppression ratio (0 to 72 hours after cisplatin dosing) ([1]; 3 mg/kg p.o. twice daily): 36 % NS | Duration (in hour; mean ± SD) ([1]; 3 mg/kg × 2 p.o.): 44.2 ± 8.4 h | Latency (in hour; mean ± SD) ([1]; 3 mg/kg × 2 p.o.): 15.7 ± 5.6 h | On day 0 (0-24 hours): frequency of retching and vomiting (mean ± SD) ([1]; 3 mg/kg × 2 p.o.): 27.8 ± 13.1 | On day 0 (0-24 hours): number of ferrets with vomiting/ number of tested ferrets ([1]; 3 mg/kg × 2 p.o.): 4/6 | On days 1-2(24-48 hours): frequency of retching and vomiting (mean ± SD) ([1]; 3 mg/kg × 2 p.o.): 221.7 ± 62.9 | On days 1-2(24-48 hours): number of ferrets with vomiting/ number of tested ferrets ([1]; 3 mg/kg × 2 p.o.): 6/6 | Total frequency of retching and vomiting (on days 0~2; 0-72 hours) ([1]; 3 mg/kg × 2 p.o.): 249.5 ± 74.2 | Delayed vomiting suppression ratio (24 to 72 hours after MIX dosing) ([2]; 10 mg/kg p.o. once daily): 21 % NS | Suppression ratio of total frequency of vomiting (0 to 72 hours after MTX dosing) ([2]; 10 mg/kg p.o. once daily): 24 % NS | Duration (in hour; mean ± SD) ([2]; 10 mg/kg p.o.): 27.8 ± 2.7 h | Frequency of vomiting (mean ± SD), Day 0 (0-24 hours) ([2]; 10 mg/kg p.o.): 0 b | Frequency of vomiting (mean ± SD), Days 1 + 2 (24 - 72 hours) ([2]; 10 mg/kg p.o.): 9.3 ± 2.3 | Latency (in hour; mean ± SD) ([2]; 10 mg/kg p.o.): 28.6 ± 3.9 h | Frequency of vomiting (mean ± SD), Total frequency ([2]; 10 mg/kg p.o., 72 hours): 9.3 ± 2.3 | Number of dogs with vomiting/number of tested dogs ([2]; 10 mg/kg p.o., 72 hours): 3/3
